Literature values, collected in PMC8491563 (Journal of controlled release : official journal of the …, 2020).

Test system: CCR2
Settings: in conjunction with nab-paclitaxel/gemcitabine, 21 treated patients

O=C(NCC(=O)N1CC[C@H](N[C@H]2CC[C@@](O)(c3ccc(-c4ncccn4)cn3)CC2)C1)c1cccc(C(F)(F)F)c1 [PF-04136309]
patients responding with a reduction in tumor size compared to the baseline: 23.8%
